Source: article PMC6017214, “Rational Design of a New Class of Toll-Like Receptor 4 (TLR4) Tryptamine Related Agonists by Means of the Structure- and Ligand-Based Virtual Screening for Vaccine Adjuvant Discovery” (Molecules : A Journal of Synthetic Chemistry and Natural …, 2018)

Assays:
[1] = test system: CHO-K1 (Chinese hamster ovary); experiment: MTT cytotoxicity assay; type: cell-based; conditions: Cricetulus griseus, CHO-K1 cells, 24 h exposure, mean of 2–3 independent measurements, read-out: IC50 and SEM
Description: The toxicity was estimated on the cell cultures in order to exclude the most toxic motifs from further development and to test whether the compounds might be used in the functional cell-model of TLR4. Standard MTT assay (Sigma Aldrich, Damrstadt, Germany) was applied according to the manufacturer’s protocol on the CHO-K1 (Chinese hamster ovary, ECACC, Salisbury, UK).
The IC50 values were calculated from the control-subtracted triplicates using non-linear regression (four parameters) of GraphPad Prism 5 software (GraphPad Software, La Jolla, CA, USA). Final IC50 and SEM value was obtained as a mean of 2–3 independent measurements (see Table 3).
Standard MTT assay (Sigma Aldrich, Darmstadt, Germany) was applied according to the manufacturer’s protocol on the CHO-K1 (Chinese hamster ovary, ECACC, Salisbury, UK) in order to compare the effect of different compound within the series. The cells were cultured according to ECACC recommended conditions and seeded in a density of 8000 per well. […] Cells were exposed to the tested compounds for 24 h. Then the medium was replaced by a medium containing 10 μM of MTT and cells were allowed to produce formazan for another approximately 3 h under surveillance. Thereafter, medium with MTT was sucked out and crystals of formazan were dissolved in DMSO (100 µL). Cell viability was assessed spectrophotometrically by the amount of formazan produced. Absorbance was measured at 570 nm with 650 nm reference wavelength on Synergy HT (BioTek, Winooski, VT, USA). IC50 was then calculated from the control—subtracted triplicates using non-linear regression (four parameters) of GraphPad Prism 5 software (GraphPad Software, La Jolla, CA, USA). Final IC50 and SEM value was obtained as a mean of 2–3 independent measurements.

[2] = test system: human Periferal blood mononuclear cells (PBMCs); experiment: Ex vivo stimulation of IL-6 production (ELISA); type: cell-based; conditions: 24 h; for ability to elicit IL-6 production (in words): 10 µM; for c (IL-6 production): 10 µM of each compound (MPLA 10 μM, LPS-RS 100 ng/mL), ELISA, dash = no IL-6 production found
Excerpt: Important factor in adjuvants development is wheter the compounds are capable to elicit immune response not only on reporter cells but on real immunocompetent cels. We have chosen ex vivo study on human Periferal blood mononuclear cells (PBMCs) to evaluate the ability to produce an interleukin 6 (IL-6). […] We have collected the blood samples from healthy donors. From those blood samples we had harvested PBMCs by standard protocol using Histopaque 1077 density gradient. PBMC specimens were frozen and kept in liquid nitrogen. The cells were incubated for 24 h with 10 µM (10% of lowest cytotoxic IC50—see the Section 2.5 and Section 2.6) of each compound and the ability to elicit IL-6 production was assessed. Synthetic MPLA (MPLAs) in equimolar concentration (10 μM) was used as a positive control and LPS from Rhodobacter sphaeroides 100 ng/mL (LPS-RS) as a negative control. IL-6 production was quantified by ELISA commercial kit (Sigma Aldrich) and results were interpreted by GraphPad Prism using Nonlinear Fit of RIA data function. […] Effect on other pro-inflamatory cytokines (e.g., IL-1) was not determined in this study and will be subject of ongoing study in order to explain discrepancy among in silico, in vitro and ex vivo findings. Furthermore study evaluating the influence of compounds on Th1/Th2/Th17 bias will be needed to thoroughly assess their adjuvant and immunomodulating potential. Nevertheless, despite such necesarry and laborious tasks novel TLR4 agonists and potential vaccine adjuvants have been found.
PBMCs was obtained by standard protocol using Histopaque 1077 gradient from whole blood of healthy donors. Cells were seeded at 25,000 cells per well and incubated for 24 h with final concentration 10 µM of each compound in triplicate (n = 3). After 24 h 100 µL of supernatant was collected from each well and level of IL-6 was determined by human IL-6 ELISA kit obtained from Sigma Aldrich (Darmstadt, Germany). Absorbance was measured at 450 nm wavelength on Synergy HT (BioTek). Level of IL-6 was calculated from standard curve using RIA nonlinear plot in Graph Pad Prism 6.

[3] = biological target: T1, Recombinant hTRL4/MD2 complex (Homo sapiens, UniProt O00206+Q9Y6Y9); experiment: Surface plasmon resonance direct binding (Biacore T200)
T1 construct: purchased R&D Systems
T1 sequence (O00206 24-631 limits assumed): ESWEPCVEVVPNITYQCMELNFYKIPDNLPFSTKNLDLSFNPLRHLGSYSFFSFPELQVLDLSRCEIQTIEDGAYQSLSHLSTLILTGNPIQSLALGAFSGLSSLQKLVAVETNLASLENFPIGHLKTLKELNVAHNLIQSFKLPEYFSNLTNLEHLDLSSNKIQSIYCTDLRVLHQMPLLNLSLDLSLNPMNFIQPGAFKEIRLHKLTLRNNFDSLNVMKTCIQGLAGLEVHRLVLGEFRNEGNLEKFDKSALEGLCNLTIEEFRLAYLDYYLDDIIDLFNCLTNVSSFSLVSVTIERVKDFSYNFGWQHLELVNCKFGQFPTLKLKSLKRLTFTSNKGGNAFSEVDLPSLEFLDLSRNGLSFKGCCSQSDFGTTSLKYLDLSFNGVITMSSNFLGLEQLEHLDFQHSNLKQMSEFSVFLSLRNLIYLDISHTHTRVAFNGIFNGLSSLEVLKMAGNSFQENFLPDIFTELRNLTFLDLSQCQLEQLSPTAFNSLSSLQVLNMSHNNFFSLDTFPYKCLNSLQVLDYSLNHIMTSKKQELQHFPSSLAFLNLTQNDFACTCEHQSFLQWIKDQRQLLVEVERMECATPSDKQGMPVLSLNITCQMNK
T1 sequence (Q9Y6Y9 17-160 limits assumed): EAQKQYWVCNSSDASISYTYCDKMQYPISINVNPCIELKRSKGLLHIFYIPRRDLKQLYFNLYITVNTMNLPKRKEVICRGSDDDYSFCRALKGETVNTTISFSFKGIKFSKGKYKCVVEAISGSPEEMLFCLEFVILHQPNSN
Description: To shed light on the prediction capabilities of vHTPS, direct binding of the best compound from the in vitro study (17) to the hTRL4/MD2 complex was investigated through Biospecific Interaction Analysis using the SPR-based biosensor Biacore T200 (GE Healthcare, Little Chalfont, UK).
Compound 17 was further analyzed using a series of concentrations from 6.25 up to 200 μM (binary dilution).
Surface plasmon resonance (SPR) experiments methodology was adapted from experiments by Svajger et al.. The experiments were performed using a Biacore T200 (GE Healthcare, Little Chalfont, UK) instrument equipped with a Series S—CM5 sensor chip (GE Healthcare). Dulbecco’s PBS supplied with 0.05% tween 20 and DMSO was used for immobilization of the protein. Recombinant human hTLR4/MD2 (R&D Systems, Minneapolis, MN, USA) was attached to the surface of the chip by amine coupling. The surface of flow cells 1 and 2 was initially activated with a 10-min pulse of a 1:1 mixture of 0.4 M 1-ethyl-3-(3-dimethylaminopropyl)-carbodiimide hydrochloride and 0.1 M N-hydroxysuccinimide, according to manufacturer recommendations. TLR4 was diluted into 10 mM sodium acetate buffer, pH 5.5, to a final concentration of 200 μg/mL, and injected twice for 600 s over the second flow cell. Both flow cells were blocked with a 10-min pulse of 1.0 M ethanolamine pH 8.5. The final capacity level was about 8000 RU. Analysis was performad in the running buffer consisting of Dulbecco’s PBS (10 mM Na2HPO4, 2 mM KH2PO4, 137 mM NaCl, 2 mM KCl, pH 7.4) supplemented with 1% DMSO (Sigma Aldrich, Darmstadt, Germany) and […]. All of the three hits from the cell-based assays were tested at two different concentrations: 20 μM and 200 μM. Each compound was injected for 1 min at a flow-rate of 30 μL/min, and the dissociation was monitored for 30 s. Regeneration was not needed, although 30 s of buffer-flow was used to stabilize the surface after each injection. […] We used the following concentrations for titration: 0, 6.25, 12.5, 25, 50, 100 and 200 μM.

hTLR4/MD2 receptor = biological target: T2, hTLR4/MD2 receptor (Homo sapiens, UniProt O00206+Q9Y6Y9); experiment: In vitro hTLR4/MD2 activity assessment in HEK-Blue-hTLR4 reporter cells (SEAP); type: cell-based; conditions: 10 µM, 16 h, relative to MPLA at same concentration, n = 3
T2 construct: host or cells: HEK-Blue-hTLR4 cells
T2 sequence (O00206 24-839): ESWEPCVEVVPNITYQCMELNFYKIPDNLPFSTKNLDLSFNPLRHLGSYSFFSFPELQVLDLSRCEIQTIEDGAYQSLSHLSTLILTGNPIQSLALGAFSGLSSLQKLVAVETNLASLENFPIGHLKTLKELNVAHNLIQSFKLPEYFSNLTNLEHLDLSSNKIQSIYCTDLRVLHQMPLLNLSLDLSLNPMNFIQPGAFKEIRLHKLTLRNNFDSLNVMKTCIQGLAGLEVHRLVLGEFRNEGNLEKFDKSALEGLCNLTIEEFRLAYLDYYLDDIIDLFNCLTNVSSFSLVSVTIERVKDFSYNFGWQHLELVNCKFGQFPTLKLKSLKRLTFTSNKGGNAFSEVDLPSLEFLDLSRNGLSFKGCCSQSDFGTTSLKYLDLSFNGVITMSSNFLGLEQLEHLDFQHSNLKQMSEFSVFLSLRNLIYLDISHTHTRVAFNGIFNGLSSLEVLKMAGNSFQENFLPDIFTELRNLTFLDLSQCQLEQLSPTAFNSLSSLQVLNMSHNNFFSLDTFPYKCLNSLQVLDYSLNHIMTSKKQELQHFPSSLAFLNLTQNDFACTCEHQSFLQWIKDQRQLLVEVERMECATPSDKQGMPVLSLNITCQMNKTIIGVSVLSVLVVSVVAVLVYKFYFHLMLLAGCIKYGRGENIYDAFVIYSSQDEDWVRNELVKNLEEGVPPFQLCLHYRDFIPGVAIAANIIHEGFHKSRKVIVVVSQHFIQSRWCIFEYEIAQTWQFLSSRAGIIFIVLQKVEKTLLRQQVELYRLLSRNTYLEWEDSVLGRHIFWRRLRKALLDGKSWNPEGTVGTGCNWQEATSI
T2 sequence (Q9Y6Y9 17-160 limits assumed): as the sequence (Q9Y6Y9 17-160 limits assumed) above
Description: Aliquots of 20 µL of each compound was added into the well containing 25000 HEK-Blue™-hTLR4 cells (Invivogen, Toulouse, France) and the final concentration of compound in each well was 10 µM. Each concentration was evaluated in triplicate. Synthetic MPLAs (Invivogen) of the same concentration was used as positive control, apyrogenous saline F1 (BBraun, Prague, Czech Republic) was used as negative control. Plates were incubated overnight for 16 h at 37 °C 5% CO2. After the incubation 20 μL aliquots of supernatant were collected and mixed with 200 μL of SEAP detection media (QuantiBlue™, Invivogen) and incubated for 2 h at 37 °C 5% CO2. Absorbance of the solution was measured at 630 nm and activity of each compound expressed as a percentage of an activity of the MPLA of respective concentration was determined (n = 3).

[4] = Stability of the solid compounds (observation); type: physicochemical; conditions: solid state

With O=C(NCCc1c[nH]c2ccccc12)c1ccccc1 [Compound 14, N-(2-(1H-Indol-3-yl)ethyl)benzamide] the IC50 [1] was 297 ± 17 µM, the “ability to elicit IL-6 production (in words)” value [2] was “significantly induce production of IL-6” and the “c (IL-6 production)” value [2] was 53.501 pg/mL.
Cc1ccc(C(=O)NCCc2c[nH]c3ccccc23)cc1 [Compound 15, N-(2-(1H-Indol-3-yl)ethyl)-4-methylbenzamide] gave an IC50 [1] of 197 ± 41 µM.
COc1ccc(C(=O)NCCc2c[nH]c3ccccc23)cc1 [Compound 16, N-(2-(1H-Indol-3-yl)ethyl)-4-methoxybenzamide] showed an IC50 [1] of 200 ± 7 µM and a melting point of 132.8 to 134.3 °C.
In the case of O=C(NCCc1c[nH]c2ccccc12)c1ccc(Cl)cc1 [Compound 17, N-(2-(1H-Indol-3-yl)ethyl)-4-chlorobenzamide], the IC50 [1] is reported as 201 ± 8 µM, the “dissociation (SPR, in words)” value ([3]; 6.25 up to 200 μM) is reported as “rapid dissociation rates” and the Kd ([3]; SPR, immobilized hTRL4/MD2, 6.25 up to 200 μM) is reported as 0.747 µM. The “direct binding to the hTRL4/MD2 complex (SPR, in words)” value ([3]; immobilized recombinant hTRL4/MD2) was “direct binding to the hTRL4/MD2 complex was confirmed”, the “ability to elicit IL-6 production (in words)” value [2] was “did not shown any effect” and the “activity of MPLA (hTLR4/MD2 agonist activity normalized to MPLA)” value (hTLR4/MD2 receptor) was “more than 20%”.
O=C(NCCc1c[nH]c2ccccc12)c1ccc(Cl)c(Cl)c1 [Compound 18, N-(2-(1H-Indol-3-yl)ethyl)-3,4-dichlorobenzamide] gave an IC50 [1] of 892 ± 122 µM and a melting point of 112.4 to 113.9 °C.
In the case of O=C(NCCc1c[nH]c2ccccc12)c1ccc2ccccc2c1 [Compound 19, N-(2-(1H-Indol-3-yl)ethyl)-2-naphthamide], the IC50 [1] is reported as 155 ± 12 µM and the melting point is reported as 193.2 to 195 °C.
O=C(NCCc1c[nH]c2ccccc12)C1CCCCC1 [Compound 20, N-(2-(1H-Indol-3-yl)ethyl)cyclohexanecarboxamide] showed an IC50 [1] of 211 ± 43 µM and a melting point of 104.8 to 106.3 °C.
Compound O=C(NCCc1c[nH]c2ccccc12)c1cccc2ccccc12 [Compound 21, N-(2-(1H-Indol-3-yl)ethyl)-1-naphthamide] has a melting point of 164.5 to 166.5 °C.
In the case of O=C(NCCc1c[nH]c2ccccc12)C1CCc2ccccc2C1 (stereo not drawn) [Compound 22, N-(2-(1H-Indol-3-yl)ethyl)-1,2,3,4-tetrahydronaphthalene-2-carboxamide], the IC50 [1] is reported as 128 ± 8 µM, the melting point is reported as 123.2 to 125.2 °C and the “ability to elicit IL-6 production (in words)” value [2] is reported as “significantly induce production of IL-6”. For the same compound, the “c (IL-6 production)” value [2] was 147.64 pg/mL and the “activity of MPLA (hTLR4/MD2 agonist activity normalized to MPLA)” value (hTLR4/MD2 receptor) was about 10%.
For O=C(NCCc1c[nH]c2ccccc12)c1ccc2c(c1)CCCC2 [Compound 23, N-(2-(1H-Indol-3-yl)ethyl)-5,6,7,8-tetrahydronaphthalene-2-carboxamide], the IC50 [1] was 98 ± 6 µM and the melting point was 137 to 139 °C.
For O=C(NCCc1c[nH]c2ccccc12)C1CCCCCC1 [Compound 24, N-(2-(1H-Indol-3-yl)ethyl)cycloheptanecarboxamide], the IC50 [1] was 170 ± 10 µM, the melting point was 88.4 to 90.4 °C and the “stability of the compound (in words)” value [4] was “unwanted degradations from crystals to amorphous state”.
In the case of CC(C)CCC(=O)NCCc1c[nH]c2ccccc12 [Compound 25, N-(2-(1H-Indol-3-yl)ethyl)-4-methylpentanamide], the IC50 [1] is reported as 348 ± 35 µM, the melting point is reported as 45.1 to 47.1 °C and the “stability of the compound (in words)” value [4] is reported as “unwanted degradations from crystals to amorphous state”.
For “Monophosphoryl lipid A [MPLA, reference compound]”, the “c (IL-6 production)” value [2] was 3078.97 pg/mL.
